We go through four compounds from ChEMBL document CHEMBL3425448, “Synthesis of hydrolysis-resistant pyridoxal 5'-phosphate analogs and their biochemical and X-ray crystallographic characterization with the pyridoxal phosphatase chronophin” (Bioorg Med Chem, 2015).

The assay concerns the target T1, Chronophin (Mus musculus, UniProt P60487).
T1 sequence (P60487 whole entry): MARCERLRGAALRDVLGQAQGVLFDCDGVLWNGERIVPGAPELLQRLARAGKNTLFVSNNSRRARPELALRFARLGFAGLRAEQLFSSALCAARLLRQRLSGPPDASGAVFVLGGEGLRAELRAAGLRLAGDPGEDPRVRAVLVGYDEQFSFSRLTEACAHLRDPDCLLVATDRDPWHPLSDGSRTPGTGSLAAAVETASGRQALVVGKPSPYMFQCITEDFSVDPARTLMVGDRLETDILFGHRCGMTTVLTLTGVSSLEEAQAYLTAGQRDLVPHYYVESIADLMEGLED
Kind of assay: Inhibition of recombinant mouse brain PDXP expressed in Escherichia coli BL21 (DE3) cells assessed as pyridoxal 5' phosphate dephosphorylation preincubated for 4 mins followed by substrate addition measured after 5 mins.

What is called IC50 is the concentration that inhibits the measured activity by half. In the case of `Cc1ncc(CCP(=O)(O)O)c(C=O)c1O`, the IC50 was 79 µM.

As to `Cc1ncc(/C=C/P(=O)(O)O)c(C=O)c1O`, the half-inhibitory concentration (IC50) worked out at 246 µM.

For `Cc1ncc(CCP(=O)(O)O)c(CO)c1O`, the half-maximal inhibitory concentration (IC50) was determined as 1300 µM.

`Cc1ncc(/C=C/P(=O)(O)O)c(CO)c1O`: the IC50 was determined as 1300 µM.
